From patent US12319672B2, “Alpha-D-galactopyranoside derivatives” (Idorsia Pharmaceuticals Ltd, priority 2019, dated 2025)

Key:
human Gal-3 (hGal-3) = human Gal-3 (hGal-3) (Homo sapiens (Human), UniProt P17931); experiment: Competitive binding assay: binding of biotinylated hGal-3 to microplate-adsorbed asialofetuin (ASF); conditions: Activity on hGal-3; mean values of several measurements
Experimental: (§1) Evaluation of Compound Inhibitory Activity (IC50)
(§2) The inhibitory activity of compounds is determined in competitive binding assays. This spectrophotometric assay measures the binding of biotinylated human Gal-3 (hGal-3) or human Gal-1 (hGal-1), respectively, to a microplate-adsorbed glycoprotein, asialofetuin (ASF) (Proc Natl Acad Sci USA. 2013 Mar. 26; 110(13):5052-7.). Alternatively, and preferably, a human Gal-1 version in which all six cysteines are substituted by serines may be used.
(§3) Briefly, compounds are serially diluted in DMSO (working dilutions). ASF-coated 384 well plates are supplemented with 22.8 μL/well of biotinylated hGal-3 or hGal-1 in assay buffer (i.e. 300-1000 ng/mL biotinylated hGal-3 or hGal-1) to which 1.2 μL of compound working dilutions are added and mixed.
(§4) Plates are incubated for 3 hours at 4° C., then washed with cold assay buffer (3×50 uL), incubated for 1 hour with 25 μL/well of a streptavidin-peroxidase solution (diluted in assay buffer to 80 ng/mL) at 4° C., followed by further washing steps with assay buffer (3×50 uL). Finally, 25 μL/well of ABTS substrate is added.
(§5) The calculated IC50 values may fluctuate depending on the daily assay performance. Fluctuations of this kind are known to those skilled in the art. IC50 values from several measurements are given as mean values.

human Gal-1 (hGal-1) = experiment: Competitive binding assay: binding of biotinylated hGal-1 to microplate-adsorbed asialofetuin (ASF); conditions: Activities on hGal-1; mean values of several measurements
Experimental: as §1, §2, §3, §4, §5

human Gal-3 (hGal-3), sequence (P17931 whole entry): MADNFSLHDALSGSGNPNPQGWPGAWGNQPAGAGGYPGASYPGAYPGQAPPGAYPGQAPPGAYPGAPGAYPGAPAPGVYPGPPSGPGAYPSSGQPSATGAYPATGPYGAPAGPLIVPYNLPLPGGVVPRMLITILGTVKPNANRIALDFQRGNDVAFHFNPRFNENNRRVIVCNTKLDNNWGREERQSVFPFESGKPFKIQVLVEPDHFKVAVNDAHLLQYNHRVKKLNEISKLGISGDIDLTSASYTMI
human Gal-1 (hGal-1), sequence (P09382 2-135 limits assumed): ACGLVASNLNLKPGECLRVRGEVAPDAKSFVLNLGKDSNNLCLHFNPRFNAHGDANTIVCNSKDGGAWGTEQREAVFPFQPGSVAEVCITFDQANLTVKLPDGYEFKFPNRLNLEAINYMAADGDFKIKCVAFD

Work on `CO[C@@H]1[C@@H](n2cc(-c3ccc(Cl)c(F)c3F)nn2)[C@@H](O)[C@@H](CO)O[C@@H]1Cc1cc(C2(C)COC2)no1` [Ex 1.260] yielded an IC50 (human Gal-3 (hGal-3)) of 63 nM and an IC50 (human Gal-1 (hGal-1)) of 1410 nM.

`CO[C@@H]1[C@@H](n2cc(-c3cc(F)c(F)c(Cl)c3)nn2)[C@@H](O)[C@@H](CO)O[C@@H]1Cc1cc(C(C)(C)C)on1` [Ex 1.221] was tested, and the IC50 (human Gal-3 (hGal-3)) was 160 nM and the IC50 (human Gal-1 (hGal-1)) was 980 nM.

`COC(=O)CO[C@@H]1[C@@H](n2cc(-c3cc(F)c(F)c(F)c3)nn2)[C@@H](O)[C@@H](CO)O[C@@H]1CC1CC(C2CCN(C(=O)OC(C)(C)C)CC2)=NO1` (mixture of isomers) [Example 2.33, tert-butyl 4-((RS)-5-(((2R,3R,4S,5R,6R)-5-hydroxy-6-(hydroxymethyl)-3-(2-methoxy-2-oxoethoxy)-4-(4-(3,4,5-trifluorophenyl)-1H-1,2,3-triazol-1-yl)tetrahydro-2H-pyran-2-yl)methyl)-4,5-dihydroisoxazol-3-yl)piperidine-1-carboxylate] was tested, and the IC50 (human Gal-3 (hGal-3)) was 310 nM and the IC50 (human Gal-1 (hGal-1)) was 2450 nM.

`CC(C)(C)OC(=O)N1CCC(C2=NOC(C[C@H]3O[C@H](CO)[C@H](O)[C@H](n4cc(-c5cc(F)c(F)c(F)c5)nn4)[C@H]3OCC(=O)O)C2)CC1` (mixture of isomers) [Example 2.34, 2-(((2R,3R,4S,5R,6R)-2-(((RS)-3-(1-(tert-butoxycarbonyl)piperidin-4-yl)-4,5-dihydroisoxazol-5-yl)methyl)-5-hydroxy-6-(hydroxymethyl)-4-(4-(3,4,5-trifluorophenyl)-1H-1,2,3-triazol-1-yl)tetrahydro-2H-pyran-3-yl)oxy)acetic acid] gave an IC50 (human Gal-3 (hGal-3)) of 68 nM and an IC50 (human Gal-1 (hGal-1)) of 1190 nM.

In the case of `CO[C@@H]1[C@@H](n2cc(-c3cc(F)c(C#N)c(F)c3)nn2)[C@@H](O)[C@@H](CO)O[C@@H]1CC1CC(C2CCN(C(=O)OC(C)(C)C)CC2)=NO1` (stereo partly shown) [Ex 1.223], the IC50 (human Gal-3 (hGal-3)) is reported as 380 nM and the IC50 (human Gal-1 (hGal-1)) is reported as 16700 nM.

Work on `CO[C@@H]1[C@@H](n2cc(-c3cc(F)c(F)c(F)c3)nn2)[C@@H](O)[C@@H](CO)O[C@@H]1CC1CN(C2CCN(C(=O)CC(C)(C)C)CC2)C(=O)O1` (mixture of isomers) [Example 5.19, (RS)-3-(1-(3,3-dimethylbutanoyl)piperidin-4-yl)-5-(((2R,3R,4S,5R,6R)-5-hydroxy-6-(hydroxymethyl)-3-methoxy-4-(4-(3,4,5-trifluorophenyl)-1H-1,2,3-triazol-1-yl)tetrahydro-2H-pyran-2-yl)methyl)oxazolidin-2-one] yielded an IC50 (human Gal-3 (hGal-3)) of 100 nM and an IC50 (human Gal-1 (hGal-1)) of 1370 nM.

In the case of `CO[C@@H]1[C@@H](n2cc(-c3cc(F)c(F)c(F)c3)nn2)[C@@H](O)[C@@H](CO)O[C@@H]1CC1CN(C2CCN(C(=O)C(C)C)CC2)C(=O)O1` (mixture of isomers) [Example 5.10, (RS)-5-(((2R,3R,4S,5R,6R)-5-hydroxy-6-(hydroxymethyl)-3-methoxy-4-(4-(3,4,5-trifluorophenyl)-1H-1,2,3-triazol-1-yl)tetrahydro-2H-pyran-2-yl)methyl)-3-(1-isobutyrylpiperidin-4-yl)oxazolidin-2-one], the IC50 (human Gal-3 (hGal-3)) is reported as 190 nM and the IC50 (human Gal-1 (hGal-1)) is reported as 280 nM.

With `CC(=O)N1CCC(C2=NOC(C[C@H]3O[C@H](CO)[C@H](O)[C@H](n4cc(-c5cc(F)c(F)c(F)c5)nn4)[C@H]3O)C2)CC1` (mixture of isomers) [Example 3.03, 1-(4-((RS)-5-(((2R,3R,4R,5R,6R)-3,5-dihydroxy-6-(hydroxymethyl)-4-(4-(3,4,5-trifluorophenyl)-1H-1,2,3-triazol-1-yl)tetrahydro-2H-pyran-2-yl)methyl)-4,5-dihydroisoxazol-3-yl)piperidin-1-yl)ethan-1-one] the IC50 (human Gal-3 (hGal-3)) was 150 nM and the IC50 (human Gal-1 (hGal-1)) was 2490 nM.

In the case of `CO[C@@H]1[C@@H](n2cc(-c3cc(F)c(F)c(F)c3)nn2)[C@@H](O)[C@@H](CO)O[C@@H]1Cn1cc(C2CCN(C(=O)NC3CC3)CC2)nn1` [Example 4.32, N-cyclopropyl-4-(1-(((2R,3R,4S,5R,6R)-5-hydroxy-6-(hydroxymethyl)-3-methoxy-4-(4-(3,4,5-trifluorophenyl)-1H-1,2,3-triazol-1-yl)tetrahydro-2H-pyran-2-yl)methyl)-1H-1,2,3-triazol-4-yl)piperidine-1-carboxamide], the IC50 (human Gal-3 (hGal-3)) is reported as 65 nM and the IC50 (human Gal-1 (hGal-1)) is reported as 884 nM.

Compound `CC(C)(C)C(=O)N1CCC(c2cc(C[C@H]3O[C@H](CO)[C@H](O)[C@H](n4cc(-c5cc(F)c(F)c(F)c5)nn4)[C@H]3O)no2)CC1` [Example 3.30, 1-(4-(3-(((2R,3R,4R,5R,6R)-3,5-dihydroxy-6-(hydroxymethyl)-4-(4-(3,4,5-trifluorophenyl)-1H-1,2,3-triazol-1-yl)tetrahydro-2H-pyran-2-yl)methyl)isoxazol-5-yl)piperidin-1-yl)-2,2-dimethylpropan-1-one] has an IC50 (human Gal-3 (hGal-3)) of 160 nM and an IC50 (human Gal-1 (hGal-1)) of 3620 nM.

`CO[C@@H]1[C@@H](n2cc(-c3cc(F)c(F)c(F)c3)nn2)[C@@H](O)[C@@H](CO)O[C@@H]1Cc1cn(C2CCN(C(C)=O)CC2)nn1` [Example 4.06, 1-(4-(4-(((2R,3R,4S,5R,6R)-5-hydroxy-6-(hydroxymethyl)-3-methoxy-4-(4-(3,4,5-trifluorophenyl)-1H-1,2,3-triazol-1-yl)tetrahydro-2H-pyran-2-yl)methyl)-1H-1,2,3-triazol-1-yl)piperidin-1-yl)ethan-1-one] showed an IC50 (human Gal-3 (hGal-3)) of 52 nM and an IC50 (human Gal-1 (hGal-1)) of 160 nM.

`CO[C@@H]1[C@@H](n2cc(-c3ccc(C)c(F)c3)nn2)[C@@H](O)[C@@H](CO)O[C@@H]1CC1CC(C2CCN(C(=O)OC(C)(C)C)CC2)=NO1` (stereo partly shown) [Ex 1.136] was tested, and the IC50 (human Gal-3 (hGal-3)) was 112 nM and the IC50 (human Gal-1 (hGal-1)) was 4770 nM.

Compound `CO[C@@H]1[C@@H](n2cc(-c3cc(F)c(F)c(F)c3)nn2)[C@@H](O)[C@@H](CO)O[C@@H]1Cc1cc(C(C)C)no1` [Ex 1.308] has an IC50 (human Gal-3 (hGal-3)) of 180 nM and an IC50 (human Gal-1 (hGal-1)) of 2370 nM.

`CO[C@@H]1[C@@H](n2cc(-c3cc(F)c(F)c(F)c3)nn2)[C@@H](O)[C@@H](CO)O[C@@H]1Cc1cc(C2(O)CCC2)on1` [Ex 1.225] was tested, and the IC50 (human Gal-3 (hGal-3)) was 530 nM and the IC50 (human Gal-1 (hGal-1)) was 4850 nM.

Work on `CO[C@@H]1[C@@H](n2cc(-c3cc(F)c(F)c(F)c3)nn2)[C@@H](O)[C@@H](CO)O[C@@H]1C[C@H]1CN(C2CCN(S(C)(=O)=O)CC2)C(=O)O1` [Example 5.07, (S)-5-(((2R,3R,4S,5R,6R)-5-hydroxy-6-(hydroxymethyl)-3-methoxy-4-(4-(3,4,5-trifluorophenyl)-1H-1,2,3-triazol-1-yl)tetrahydro-2H-pyran-2-yl)methyl)-3-(1-(methylsulfonyl)piperidin-4-yl)oxazolidin-2-one] yielded an IC50 (human Gal-3 (hGal-3)) of 280 nM and an IC50 (human Gal-1 (hGal-1)) of 7570 nM.

With `CCCO[C@@H]1[C@@H](n2cc(-c3cc(F)c(F)c(F)c3)nn2)[C@@H](O)[C@@H](CO)O[C@@H]1Cc1cc(C2CCN(C(=O)OC(C)(C)C)CC2)on1` [Example 2.19, tert-butyl 4-(3-(((2R,3R,4S,5R,6R)-5-hydroxy-6-(hydroxymethyl)-3-propoxy-4-(4-(3,4,5-trifluorophenyl)-1H-1,2,3-triazol-1-yl)tetrahydro-2H-pyran-2-yl)methyl)isoxazol-5-yl)piperidine-1-carboxylate] the IC50 (human Gal-3 (hGal-3)) was 170 nM and the IC50 (human Gal-1 (hGal-1)) was 1050 nM.

With `CO[C@@H]1[C@@H](n2cc(-c3cc(F)c(F)c(F)c3)nn2)[C@@H](O)[C@@H](CO)O[C@@H]1Cc1cc(C2CCCCC2)no1` [Ex 1.120] the IC50 (human Gal-3 (hGal-3)) was 290 nM and the IC50 (human Gal-1 (hGal-1)) was 10600 nM.

Compound `CO[C@@H]1[C@@H](n2cc(-c3cc(F)c(C)c(F)c3)nn2)[C@@H](O)[C@@H](CO)O[C@@H]1Cc1cc(C2CCOCC2)on1` [Ex 1.179] has an IC50 (human Gal-3 (hGal-3)) of 150 nM and an IC50 (human Gal-1 (hGal-1)) of 11000 nM.

`CO[C@@H]1[C@@H](n2cc(-c3ccc(Cl)c(F)c3)nn2)[C@@H](O)[C@@H](CO)O[C@@H]1Cc1cc(C2CCOCC2)on1` [Ex 1.183] showed an IC50 (human Gal-3 (hGal-3)) of 280 nM and an IC50 (human Gal-1 (hGal-1)) of 5290 nM.

For `CO[C@@H]1[C@@H](n2cc(-c3ccc(Br)c(F)c3)nn2)[C@@H](O)[C@@H](CO)O[C@@H]1Cc1cn(C2CCN(C(=O)OCc3ccccc3)CC2)nn1` [Example 4.36, benzyl 4-(4-(((2R,3R,4S,5R,6R)-4-(4-(4-bromo-3-fluorophenyl)-1H-1,2,3-triazol-1-yl)-5-hydroxy-6-(hydroxymethyl)-3-methoxytetrahydro-2H-pyran-2-yl)methyl)-1H-1,2,3-triazol-1-yl)piperidine-1-carboxylate], the IC50 (human Gal-3 (hGal-3)) was 19 nM and the IC50 (human Gal-1 (hGal-1)) was 570 nM.

Compound `CO[C@@H]1[C@@H](n2cc(-c3cc(F)c(F)c(F)c3)nn2)[C@@H](O)[C@@H](CO)O[C@H]1Cc1cn(C2CCN(C(=O)OC(C)(C)C)CC2)nn1` [Example 4.11, tert-butyl 4-(4-(((2S,3R,4S,5R,6R)-5-hydroxy-6-(hydroxymethyl)-3-methoxy-4-(4-(3,4,5-trifluorophenyl)-1H-1,2,3-triazol-1-yl)tetrahydro-2H-pyran-2-yl)methyl)-1H-1,2,3-triazol-1-yl)piperidine-1-carboxylate] has an IC50 (human Gal-3 (hGal-3)) of 1200 nM and an IC50 (human Gal-1 (hGal-1)) of 3030 nM.

In the case of `CO[C@@H]1[C@@H](n2cc(-c3cc(F)c(F)c(F)c3)nn2)[C@@H](O)[C@@H](CO)O[C@@H]1Cc1cc(C2CCN(C(=O)CC(F)(F)F)CC2)on1` [Example 3.51, 3,3,3-trifluoro-1-(4-(3-(((2R,3R,4S,5R,6R)-5-hydroxy-6-(hydroxymethyl)-3-methoxy-4-(4-(3,4,5-trifluorophenyl)-1H-1,2,3-triazol-1-yl)tetrahydro-2H-pyran-2-yl)methyl)isoxazol-5-yl)piperidin-1-yl)propan-1-one], the IC50 (human Gal-3 (hGal-3)) is reported as 71 nM.
